{
  "source": "paper PMC5404925",
  "about": "“Variation in olfactory neuron repertoires is genetically controlled and environmentally modulated” (eLife, 2017)",
  "key": {"Olfr347": {"molecular_target": "T1, Olfr347 (Mus musculus, UniProt Q8VGK2)", "T1 construct": "gene Or1j18; full-length OR, probably N-terminal RHO tag (tag-only control), in HEK293T-derived Hana3A cells with RTP1S and M3-R", "T1 sequence (Q8VGK2 1-312)": "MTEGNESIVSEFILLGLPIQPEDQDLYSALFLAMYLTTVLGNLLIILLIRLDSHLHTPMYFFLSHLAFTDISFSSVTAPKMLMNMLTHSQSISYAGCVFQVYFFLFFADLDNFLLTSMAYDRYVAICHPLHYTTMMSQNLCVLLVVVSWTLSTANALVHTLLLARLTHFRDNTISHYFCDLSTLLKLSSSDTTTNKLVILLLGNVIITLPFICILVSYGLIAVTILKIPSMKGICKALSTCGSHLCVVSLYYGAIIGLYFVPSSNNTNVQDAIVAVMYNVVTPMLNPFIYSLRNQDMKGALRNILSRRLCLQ", "test": "CRE-luciferase reporter dose-response (Dual-Glo)", "type": "cell-based", "conditions": "agonist; 1 nM to 1 mM, 4 h stimulation; RTP1S and M3-R co-expressed; Hana3A cells"}, "Olfr538": {"molecular_target": "T2, Olfr538 (Mus musculus, UniProt Q7TRT5)", "T2 construct": "gene Or13a24; full-length OR, probably N-terminal RHO tag (tag-only control), in HEK293T-derived Hana3A cells with RTP1S and M3-R", "T2 sequence (Q7TRT5 1-310)": "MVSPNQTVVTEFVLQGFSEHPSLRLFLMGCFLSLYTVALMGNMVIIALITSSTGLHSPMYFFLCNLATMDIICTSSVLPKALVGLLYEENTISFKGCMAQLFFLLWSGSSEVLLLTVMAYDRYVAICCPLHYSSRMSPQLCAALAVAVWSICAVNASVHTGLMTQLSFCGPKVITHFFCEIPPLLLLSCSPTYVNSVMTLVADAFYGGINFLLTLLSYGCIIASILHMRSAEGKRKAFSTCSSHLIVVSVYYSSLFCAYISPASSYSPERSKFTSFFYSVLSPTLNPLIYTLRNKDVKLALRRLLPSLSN", "test": "CRE-luciferase reporter dose-response (Dual-Glo)", "type": "cell-based", "conditions": "agonist; 1 nM to 1 mM, 4 h stimulation; RTP1S and M3-R co-expressed; Hana3A cells"}},
  "data": [
    {"smiles": "C=C(C)[C@@H]1CC=C(C)C(=O)C1", "note": "[(R)-carvone]", "values": [
      {"measurement": "CRE-luciferase reporter dose-response (Dual-Glo)", "setting": "Olfr347", "value": "Dose-response curve for HEK293 cells expressing Olfr347 (black) challenged with increasing concentrations of (R)-carvone"},
      {"measurement": "CRE-luciferase reporter dose-response (Dual-Glo)", "setting": "Olfr538", "value": "Olfr538 displayed a dose-dependent response to (R)-carvone"}
    ]}
  ]
}
